Data from patent US20240287154A1, “MC3R AGONIST PEPTIDES” (The Regents of the University of Michigan, priority 2021, published 2024).
Non-standard residues stand in square brackets, D forms with d. Residues, ends and D or L forms follow the SMILES beside them. Nle = CCCC[C@H](N)C(=O)O; Aib = CC(C)(N)C(=O)O

Tests used:
human MC3R = target: T1, human MC3R (Homo sapiens, UniProt P41968); experiment: Intracellular cAMP levels in live cells, MC3R agonist activity; assay type: cell-based; conditions: cAMP split-luciferase reporter cell line stably expressing human MC3R; direct agonist effect, measurement window 1
T1 construct: expressed in transfected cells
Experimental: The stable cell lines were grown and maintained in selection media consisting of Dulbecco's modified Eagle media (DMEM) with 4.5 g/l D-glucose, and 4 mM L-glutamine (Thermo Fisher Scientific, Waltham, MA), supplemented with 10% fetal bovine serum, 100 units/ml penicillin, 100 μg/ml streptomycin, 2.5 μg/ml amphotericin B, 200 μg/ml hygromycin B (for positive selection of the GScAMP22f luciferase reporter), and Geneticin™ (G418) 700 μg/ml (for MC3R or MC4R selection). Actual serum concentration during the assay is estimated to be about 1%. Cell line identity is routinely verified by qPCR and MC3R- and MC4R-specific oligonucleotides.
The assay for the determination of the CAMP response in live cells was described previously. […] Ccells were seeded at a density of 20,000 cells per well using 384-well poly-D lysine-coated, clear bottom, and black-wall assay plates (Corning Inc. Corning, NJ). Cells were allowed to attach to the plates for 18 to 24 h after which growth media was removed and 20 ul of 4% D-luciferin (Promega) in CO2 independent, serum-free medium (Thermo Fisher Scientific) was added to each well. […] Intracellular cAMP levels were measured using an FDSS 7000EX Functional Drug Screening System (Hamamatsu Photonics, Hamamatsu, Japan) in the Center for Chemical Genomics at the Life Sciences Institute. This instrument allowed the in-line addition of test-peptides and receptor agonists while simultaneously acquiring the luminescence signal from live cells. […] A submaximal forskolin (20 μM) concentration was also included to serve as a normalization reference to account for cell number variations and differences in assay transducer efficiency between cell lines.
With this set up it was possible to evaluate the direct agonist effect of the test-peptides on the MC3R and MC4R cell lines during measurement window 1, while the antagonist profile in the presence of EC90 α-MSH was determined on measurement window 2. […] EC50 or IC50 potency values were determined by non-linear regression by fitting the data to a sigmoid four-parameter variable slope model using the GraphPad Prism version 8.4 software package (San Diego CA).

human MC4R = human MC4R (Homo sapiens, UniProt P32245); experiment: Intracellular cAMP levels in live cells, MC3R selectivity relative to MC4R; assay type: cell-based; conditions: cAMP assays in human MC3R and human MC4R stable cell lines
in vitro = conditions: for half-life at 1 µM / remaining at 5 min, 1 µM / remaining at 0.5 h, 1 µM / remaining at 1 h, 1 µM / remaining at 2 h, 1 µM / remaining at 4 h, 1 µM / remaining at 0.25 h, 1 µM: mouse, plasma
Experimental: Pooled mouse plasma was prepared and stored at −80° C. prior to use. 396 μL mouse plasma was incubated at 37° C. for 5 minutes in 1.5 mL microcentrifuge tubes. 4 μL of 100 μM test or control compound/peptide was added to each tube and incubated for 0.5, 15, 30, 60, 120, or 240 minutes. An aliquot of 40 μL of each reaction was stopped by the addition of 4 volume of cold acetonitrile containing 200 ng/mL of Setmelanotide as an internal standard (IS). The incubation solution was centrifuged at 3500 rpm for 10 minutes to precipitate protein. The supernatant was used for LC/MS/MS analysis. The natural log peak area ratio (compound peak […] area/internal standard peak area) was plotted against time and the gradient of the line determined.

Chain of human MC4R (P32245 whole entry): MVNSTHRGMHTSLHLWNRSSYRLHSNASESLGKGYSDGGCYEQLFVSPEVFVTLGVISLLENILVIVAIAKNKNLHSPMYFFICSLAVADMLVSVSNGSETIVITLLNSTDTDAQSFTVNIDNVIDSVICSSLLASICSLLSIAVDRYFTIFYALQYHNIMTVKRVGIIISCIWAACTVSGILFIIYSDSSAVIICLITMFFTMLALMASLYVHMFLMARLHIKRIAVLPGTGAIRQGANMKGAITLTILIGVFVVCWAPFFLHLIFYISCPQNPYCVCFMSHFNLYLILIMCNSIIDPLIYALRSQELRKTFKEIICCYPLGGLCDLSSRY
T1 sequence (P41968 whole entry): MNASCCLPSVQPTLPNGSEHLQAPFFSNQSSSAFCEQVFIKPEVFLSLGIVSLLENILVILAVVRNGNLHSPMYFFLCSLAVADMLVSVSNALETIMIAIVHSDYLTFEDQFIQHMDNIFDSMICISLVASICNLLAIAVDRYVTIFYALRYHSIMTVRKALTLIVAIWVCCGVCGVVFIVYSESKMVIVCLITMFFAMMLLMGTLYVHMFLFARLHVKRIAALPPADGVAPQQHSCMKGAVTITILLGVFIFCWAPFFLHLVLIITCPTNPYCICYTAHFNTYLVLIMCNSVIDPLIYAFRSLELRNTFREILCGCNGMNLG

| Structure (SMILES) | EC50 (human MC3R) | MC3R selectivity (relative to MC4R) (human MC4R) | half-life at 1 µM (in vitro) | remaining at 5 min, 1 µM (in vitro) | remaining at 0.5 h, 1 µM (in vitro) | remaining at 1 h, 1 µM (in vitro) | remaining at 2 h, 1 µM (in vitro) | remaining at 4 h, 1 µM (in vitro) | Mouse Plasma Stability, time point 0 min (in vitro; pooled mouse plasma, 37° C.) | Mouse Plasma Stability, time point 15 min (in vitro; pooled mouse plasma, 37° C., 15 min, in % (unit assumed)) | remaining at 0.25 h, 1 µM (in vitro) |
| --- | --- | --- | --- | --- | --- | --- | --- | --- | --- | --- | --- |
| CCCC[C@H](NC(=O)[C@@H](NC(C)=O)C(C)C)C(=O)N[C@H](C)C(=O)N[C@@H](Cc1c[nH]cn1)C(=O)N[C@@H](Cc1ccccc1)C(=O)N[C@@H](CCCNC(=N)N)C(=O)N[C@H](Cc1c[nH]c2ccccc12)C(=O)N[C@@H](CC(=O)O)C(=O)N[C@@H](CCCNC(=N)N)C(=O)N[C@@H](Cc1ccccc1)C(=O)NCC(=O)O [CTX-1121, Val-Nle-D-Ala-His-Phe-Arg-D-Trp-Asp-Arg-Phe-Gly] (Ac-V[Nle][dA]HFR[dW]DRFG-OH) | 3.1 nM | 2,123 | 138 min | 118% | 91.1% | 81.7% | 68.3% | 33.1% | 100% | 120.25 | – |
| CCCC[C@H](NC(=O)[C@@H](NC(=O)[C@H](N)Cc1ccc(O)cc1)C(C)C)C(=O)N[C@H](C)C(=O)N[C@@H](Cc1c[nH]cn1)C(=O)N[C@@H](Cc1ccccc1)C(=O)N[C@@H](CCCNC(=N)N)C(=O)N[C@H](Cc1c[nH]c2ccccc12)C(=O)N[C@@H](CC(=O)O)C(=O)N[C@@H](CCCNC(=N)N)C(=O)N[C@@H](Cc1ccccc1)C(=O)NCC(=O)O [CTX-1125, D-Tyr-Val-Nle-D-Ala-His-Phe-Arg-D-Trp-Asp-Arg-Phe-Gly] (H-[dY]V[Nle][dA]HFR[dW]DRFG-OH) | 1.7 nM | 747 | 141 min | 93.2% | 105% | 103% | 79.2% | 28.8% | 100% | – | 105% |
| CCCC[C@H](NC(=O)[C@@H](NC(=O)[C@@H](N)Cc1ccc(O)cc1)C(C)C)C(=O)N[C@H](C)C(=O)N[C@@H](Cc1c[nH]cn1)C(=O)N[C@@H](Cc1ccccc1)C(=O)N[C@@H](CCCNC(=N)N)C(=O)N[C@H](Cc1c[nH]c2ccccc12)C(=O)N[C@@H](CC(=O)O)C(=O)N[C@@H](CCCNC(=N)N)C(=O)N[C@H](Cc1ccccc1)C(=O)NCC(=O)O [CTX-1127, Tyr-Val-Nle-D-Ala-His-Phe-Arg-D-Trp-Asp-Arg-D-Phe-Gly] (H-YV[Nle][dA]HFR[dW]DR[dF]G-OH) | 2.5 nM | 95 | 1.28 min | 6.71% | 0.27% | 0.04% | – | – | 100% | – | 0.25% |
| CCCC[C@H](NC(=O)[C@@H](NC(=O)[C@@H](N)Cc1ccc(O)cc1)C(C)C)C(=O)N[C@H](C)C(=O)N[C@@H](Cc1c[nH]cn1)C(=O)N[C@@H](Cc1ccccc1)C(=O)N[C@@H](CCCNC(=N)N)C(=O)N[C@H](Cc1c[nH]c2ccccc12)C(=O)N[C@@H](CC(=O)O)C(=O)N[C@H](CCCNC(=N)N)C(=O)N[C@@H](Cc1ccccc1)C(=O)NCC(=O)O [CTX-1126, Tyr-Val-Nle-D-Ala-His-Phe-Arg-D-Trp-Asp-D-Arg-Phe-Gly] (H-YV[Nle][dA]HFR[dW]D[dR]FG-OH) | 3 nM | 43 | 1.61 min | 11.7% | 0.03% | – | – | – | 100% | – | 0.16% |
| CCCC[C@H](NC(=O)[C@@H](NC(=O)[C@@H](N)Cc1ccc(O)cc1)C(C)C)C(=O)NC(C)(C)C(=O)N[C@@H](Cc1c[nH]cn1)C(=O)N[C@@H](Cc1ccccc1)C(=O)N[C@@H](CCCNC(=N)N)C(=O)N[C@H](Cc1c[nH]c2ccccc12)C(=O)N[C@@H](CC(=O)O)C(=O)N[C@@H](CCCNC(=N)N)C(=O)N[C@@H](Cc1ccccc1)C(=O)NCC(=O)O [CTX-1134, Tyr-Val-Nle-Aib-His-Phe-Arg-D-Trp-Asp-Arg-Phe-Gly] (H-YV[Nle][Aib]HFR[dW]DRFG-OH) | 2.5 nM | 566 | 2.77 min | 28.6% | 0.14% | 0.02% | – | – | 100% | – | 2.97% |
